Details of data set [1]: method as in LI-COR product sheet. Particulars: unconjugated dye in water; ref LI-COR product sheet; cited from earlier work.
The nature of data set [2]: Absorbance and fluorescence emission spectra. The class given is physicochemical. The protocol: Absorbance and fluorescence emission spectra were generated using a Tecan Infinite M-1000 PRO multimode microplate reader. Solutions of TLR2L-800 were prepared from a 0.367 mmol/L stock solution in DMSO. Aliquots (2 µL) of TLR2L-800 were spotted on each well of a Tecan NanoQuant plate. The absorbance spectrum of TLR2L-800 (183.5 µmol/L in PBS) was acquired from 230 to 1,000 nm with a wavelength step size of 2 nm. The emission spectrum of TLR2L-800 (0.367 mmol/L in DMSO) was acquired with an excitation wavelength starting from 275 nm and emission wavelengths from 450 to 850 nm with an emission wavelength step size of 2 nm and bandwidth of 5 nm.

`CC1(C)C(=CC=C2CCCC(C=CC3=[N+](CCCCCC(=O)[O-])c4ccc(S(=O)(=O)[O-])cc4C3(C)C)=C2Oc2ccc(S(=O)(=O)[O-])cc2)N(CCCCS(=O)(=O)[O-])c2ccc(S(=O)(=O)[O-])cc21.[Na+].[Na+].[Na+].[Na+]` [IRDye800CW]: in data set [1], the absorbance maxima was 774 nm and the emission maxima was 789 nm. Further, in data set [2], the Stokes shift amounted to 15 nm.

The values above are taken from publication PMC11536076, “Intraoperative Guidance of Pancreatic Cancer Resection Using a Toll-like Receptor 2–Targeted Fluorescence Molecular Imaging Agent” (Cancer Research Communications, 2024).
